Results published in ChEMBL document CHEMBL1143991, “The 2alpha-(3-hydroxypropyl) group as an active motif in vitamin D3 analogues as agonists of the mutant vitamin D receptor (Arg274Leu)” (Bioorg Med Chem, 2008).
Activity calls are given as the source filed them. The calls are words filed in the database; no cut-off is given here.

biological target: T1, Vitamin D3 receptor (Homo sapiens) (UniProt P11473); assay: Enhancement of VDR mediated transcriptional activity in human MCF7 cells; type: cell-based
T1 sequence (whole entry): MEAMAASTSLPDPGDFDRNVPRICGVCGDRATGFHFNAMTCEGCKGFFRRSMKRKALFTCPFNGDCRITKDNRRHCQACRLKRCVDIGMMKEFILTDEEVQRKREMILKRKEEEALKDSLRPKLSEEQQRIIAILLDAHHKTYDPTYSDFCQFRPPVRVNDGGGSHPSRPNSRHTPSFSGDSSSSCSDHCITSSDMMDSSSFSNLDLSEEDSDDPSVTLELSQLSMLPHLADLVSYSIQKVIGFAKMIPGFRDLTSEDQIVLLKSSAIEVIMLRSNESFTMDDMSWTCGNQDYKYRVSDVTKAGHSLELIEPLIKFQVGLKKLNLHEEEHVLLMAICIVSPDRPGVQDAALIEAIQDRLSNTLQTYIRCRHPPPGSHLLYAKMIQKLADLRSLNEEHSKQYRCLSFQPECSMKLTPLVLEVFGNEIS

Activity, active:
C=C1C[C@@H](CCCO)[C@H](O)C/C1=C/C=C1\CCC[C@]2(C)[C@@H]([C@H](C)CCCC(C)(C)O)CC[C@@H]12
C=C1/C(=C\C=C2/CCC[C@]3(C)[C@@H]([C@H](C)CCCC(C)(C)O)CC[C@@H]23)C[C@@H](O)[C@H](CCCO)[C@@H]1O
C=C1/C(=C\C=C2/CCC[C@]3(C)[C@@H]([C@H](C)CCCC(C)(C)O)CC[C@@H]23)C[C@@H](O)[C@H](CCCO)[C@H]1CO
C=C1/C(=C\C=C2/CCC[C@]3(C)[C@@H]([C@H](C)CCCC(C)(C)O)CC[C@@H]23)C[C@@H](O)[C@H](CCCO)[C@@H]1CO
